Experimental findings from patent US20210388031A1, “Designer Peptide Opsonins” (New Jersey Institute of Technology, priority 2020, published 2021) are described below.

Like-named read-outs stand apart in the source and are kept apart here.

Data set [1] in a line: Solubility of nanofibers in aqueous phosphate buffer. Type of data set: physicochemical. The procedure: (i) SAPs are customizable solid phase peptide synthesized peptides. They are based on the canonical sequence K-(SL)6-K [SEQ.1] which aggregates via β-sheet interactions of the (SL) midblock to form fibers with polar lysine termini.^47,51 These 10-15 nm wide, 1-2 nm tall, 100s nm-μm long nanofibers are highly soluble >40 mg/mL (4w %) in aqueous phosphate buffer, FIG. 2 A-D.^57,58,60
Formed are fibers with polar glutamic acid termini. These ˜10 nm wide×1-2 nm tall, 100s nm-μm long nanofibers are highly soluble >40 mg/mL (4w %) in aqueous phosphate buffer, FIG. 3. […] Given straightforward SPPS synthesis with excellent (>90% crude purity), scalable manufacture (worldwide) of this peptide is assured.

Another data set can be described thus: Anti-drug antibodies. The note with it: in vivo.
For data set [2] the following is noted: rats IV.
The next data set relates to A549 cell. Nature of the data set: A549 cell cytocompatibility. The note with it: data not shown.
For data set [3] the following is noted: 37° C., LC/MS, FIG. 6D.

Broadly, the solubility is the concentration that dissolves in the medium under given conditions. On to `CC(=O)N[C@@H](CCCCN)C(=O)N[C@@H](CO)C(=O)N[C@@H](CC(C)C)C(=O)N[C@@H](CO)C(=O)N[C@@H](CC(C)C)C(=O)N[C@@H](CO)C(=O)N[C@@H](CC(C)C)C(=O)N[C@@H](CO)C(=O)N[C@@H](CC(C)C)C(=O)N[C@@H](CO)C(=O)N[C@@H](CC(C)C)C(=O)N[C@@H](CO)C(=O)N[C@@H](CC(C)C)C(=O)N[C@@H](CCCCN)C(N)=O` [K-(SL)6-K], for which, in data set [1], the solubility is > 40 mg/mL.
“Ac-ESLSLSLSLSLSLEGQYKTYIDKNNHYAEDERYK-NH2 (N-terminus and C-terminus assumed) [ESBP3]”: the “IC50 improved compared to SBP3 alone” value in the data set with SARS-CoV-2 is on record as “orders of magnitude improved”. For the same compound, the safety profile result (daily >1 mM @ 1% blood volume (~200 μL) in rats IV) is reported as “excellent safety profile”. The “anti-drug antibodies (ADA)” value in “Anti-drug antibodies” is listed as “none seen to date”. Also, in data set [2], the clearance is 4 to 6 h.
Broadly, the IC50 is the concentration that inhibits the measured activity by half. As to “Ac-ESLSLSLSLSLSLEGSALEEGQLKTFLDKFMHELEDLLYQLAL-NH2 (N-terminus and C-terminus assumed) [ESBP2]”, in the data set with SARS-CoV-2, the IC50 is < 10 nM and the “Plaque Reduction (10 μM, n-4)” value is recorded as 74%. Moreover, the A549 cell cytocompatibility result in the data set with A549 cell is recorded as “excellent”. For the same compound, the “adverse reaction, 10 day repeat dosing” value (rats, 1% blood volume of 1 mM peptides, FIG. 6B) is on record as “no adverse reaction”. The “stability of drug formulation” value in data set [3] was “over 10 days”. In addition, the IV clearance result in data set [2] (FIG. 6C) was “approximately 4 hrs”.
Turning to QYKTYIDKNNHYAEDERYK [SBP3], the IC50 result with SARS-CoV-2 (binding domain alone, binds to the Spike protein) is listed as “μM-nM”.
With SALEEQLKTFLDKFMHELEDLLYQLAL [SBP2], the “Plaque Reduction (10 μM, n-4)” value with SARS-CoV-2 is reported as 88%.
